In patent publication US10259810B2, “N-sulfonylated pyrazolo[3,4-b]pyridin-6-carboxamides and method of use” (AbbVie S.à.r.l., priority 2015, dated 2019):

How the values were obtained:
ΔF508-CFTR [1] = molecular target: T1, ΔF508-CFTR (Homo sapiens, UniProt P13569, DEL508-508); assay: CFTR cell surface levels using HRP-tagged ΔF508-CFTR expressing CFBE cells, in the presence of a co-corrector; assay type: cell-based; conditions: HRP-tagged ΔF508-CFTR CFBE cells, in the presence of 3 μM co-corrector; for EC50: read-out: EC50
T1 construct: host or cells: CFBE41o-, doxycycline-inducible
Outline: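 Chemiluminescent read-out of surface HRP (15 min, dark) after PBS washes. Activity is normalized as 100×(sample−DMSO)/(3 μM co-corrector alone−DMSO).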

ΔF508-CFTR [2] = molecular target: T1, ΔF508-CFTR; assay: CFTR cell surface levels using HRP-tagged ΔF508-CFTR expressing CFBE cells, intrinsic corrector capacity; assay type: cell-based; design: % Activation: concentration or dose not given beside the values; conditions: HRP-tagged ΔF508-CFTR expressing CFBE41o- cells, compound alone (intrinsic corrector capacity), 20 hours at 33° C.; for EC50: read-out: EC50
Outline: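 Read-out: chemiluminescent HRP activity of ECL4-HRP-tagged ΔF508-CFTR at the cell surface, 15 min substrate in dark. Normalized as 100×(sample−DMSO)/(positive control−DMSO).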

T1 sequence (P13569 with tags, fused parts or gaps DEL508-508): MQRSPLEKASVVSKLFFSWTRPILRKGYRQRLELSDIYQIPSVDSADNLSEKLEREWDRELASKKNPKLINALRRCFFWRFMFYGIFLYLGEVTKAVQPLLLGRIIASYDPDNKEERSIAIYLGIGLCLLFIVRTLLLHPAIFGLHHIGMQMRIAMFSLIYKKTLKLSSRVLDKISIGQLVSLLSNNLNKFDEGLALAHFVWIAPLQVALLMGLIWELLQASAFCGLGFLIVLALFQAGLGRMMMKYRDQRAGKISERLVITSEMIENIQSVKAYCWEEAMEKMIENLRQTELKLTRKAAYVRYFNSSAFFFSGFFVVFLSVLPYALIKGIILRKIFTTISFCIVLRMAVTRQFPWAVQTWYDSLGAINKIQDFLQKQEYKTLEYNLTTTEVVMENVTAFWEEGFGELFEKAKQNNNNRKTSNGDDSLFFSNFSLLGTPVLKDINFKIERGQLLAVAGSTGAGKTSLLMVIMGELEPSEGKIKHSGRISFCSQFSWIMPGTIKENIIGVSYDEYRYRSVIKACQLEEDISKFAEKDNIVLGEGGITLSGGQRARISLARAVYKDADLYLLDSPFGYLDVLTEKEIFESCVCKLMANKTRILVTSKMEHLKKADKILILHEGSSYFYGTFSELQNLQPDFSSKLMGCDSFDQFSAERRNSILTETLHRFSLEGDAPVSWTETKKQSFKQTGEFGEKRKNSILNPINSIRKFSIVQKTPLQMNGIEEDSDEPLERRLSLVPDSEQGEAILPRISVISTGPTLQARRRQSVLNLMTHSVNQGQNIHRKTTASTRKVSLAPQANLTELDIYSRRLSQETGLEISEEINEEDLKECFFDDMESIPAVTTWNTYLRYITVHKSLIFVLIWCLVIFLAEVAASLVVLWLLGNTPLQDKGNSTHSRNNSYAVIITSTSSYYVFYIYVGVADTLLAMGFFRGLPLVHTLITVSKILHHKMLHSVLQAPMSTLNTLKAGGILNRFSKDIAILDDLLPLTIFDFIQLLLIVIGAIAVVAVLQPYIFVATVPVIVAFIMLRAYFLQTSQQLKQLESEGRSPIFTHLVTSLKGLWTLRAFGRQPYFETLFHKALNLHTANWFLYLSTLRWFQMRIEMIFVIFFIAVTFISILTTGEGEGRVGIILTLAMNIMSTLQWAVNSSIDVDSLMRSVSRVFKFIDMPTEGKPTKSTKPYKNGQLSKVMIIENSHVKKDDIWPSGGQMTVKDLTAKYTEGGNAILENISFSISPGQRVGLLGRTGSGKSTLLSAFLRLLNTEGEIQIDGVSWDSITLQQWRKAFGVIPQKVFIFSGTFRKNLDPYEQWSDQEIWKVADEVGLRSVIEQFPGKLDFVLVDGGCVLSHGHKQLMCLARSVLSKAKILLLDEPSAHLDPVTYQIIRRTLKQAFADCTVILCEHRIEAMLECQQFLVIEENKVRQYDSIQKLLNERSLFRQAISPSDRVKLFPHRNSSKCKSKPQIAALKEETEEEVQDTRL

| Compound | % Activation (ΔF508-CFTR [1]) [%] | EC50 (ΔF508-CFTR [1]) [nM] | % Activation (ΔF508-CFTR [2]) [%] | EC50 (ΔF508-CFTR [2]) [nM] |
| --- | --- | --- | --- | --- |
| CCS(=O)(=O)NC(=O)c1cc(-c2ccc(OC)cc2)c2c(C)nn(-c3ccccc3)c2n1 [Compound 15, N-(ethanesulfonyl)-4-(4-methoxyphenyl)-3-methyl-1-phenyl-1H-pyrazolo[3,4-b]pyridine-6-carboxamide] | 346.15 | 852 | 151.65 | 1190 |
| COCCN(C)c1ccc(-c2cc(C(=O)NS(C)(=O)=O)nc3c2c(C(C)C)nn3-c2cccc(N3CCOCC3)c2)cc1 [Compound 88, N-(methanesulfonyl)-4-{4-[(2-methoxyethyl)(methyl)amino]phenyl}-1-[3-(morpholin-4-yl)phenyl]-3-(propan-2-yl)-1H-pyrazolo[3,4-b]pyridine-6-carboxamide] | 546.2 | 413 | 389.73 | 474 |
| CN(C)S(=O)(=O)NC(=O)c1cc(-c2ccc(N3CCC(C#N)CC3)nc2)c2c(C3CCC3)nn(-c3ccccc3)c2n1 [Compound 539, 4-[6-(4-cyanopiperidin-1-yl)pyridin-3-yl]-3-cyclobutyl-N-(dimethylsulfamoyl)-1-phenyl-1H-pyrazolo[3,4-b]pyridine-6-carboxamide] | 429.3 | 38.6 | 234.5 | 71.7 |
| COCC1CCN(c2cc(C(=O)NS(=O)(=O)N3CCOCC3)nc3c2c(C2CCC2)nn3-c2ccc(F)cc2)CC1 [Compound 671, 3-cyclobutyl-1-(4-fluorophenyl)-4-[4-(methoxymethyl)piperidin-1-yl]-N-(morpholine-4-sulfonyl)-1H-pyrazolo[3,4-b]pyridine-6-carboxamide] | 346.1 | 107 | 252.95 | 274 |
| COCC1CCN(c2cc(C(=O)NS(=O)(=O)CCC(=O)N(C)C)nc3c2c(C2CCC2)nn3-c2ccccc2)CC1 [Compound 298, 3-cyclobutyl-N-[3-(dimethylamino)-3-oxopropane-1-sulfonyl]-4-[4-(methoxymethyl)piperidin-1-yl]-1-phenyl-1H-pyrazolo[3,4-b]pyridine-6-carboxamide] | 481.2 | 81 | 312.9 | 282 |
| CS(=O)(=O)NC(=O)c1cc(CN2CCC(N3CCOCC3)CC2)c2c(C3CCC3)nn(-c3ccc(F)cc3)c2n1 [Compound 596, 3-cyclobutyl-1-(4-fluorophenyl)-N-(methanesulfonyl)-4-{[4-(morpholin-4-yl)piperidin-1-yl]methyl}-1H-pyrazolo[3,4-b]pyridine-6-carboxamide] | 304.8 | 1910 | 104.3 | 1380 |
| COCCN(C)c1cc(C(=O)NS(C)(=O)=O)nc2c1c(C1CCC1)nn2-c1ccccc1 [Compound 206, 3-cyclobutyl-N-(methanesulfonyl)-4-[(2-methoxyethyl)(methyl)amino]-1-phenyl-1H-pyrazolo[3,4-b]pyridine-6-carboxamide] | 387.03 | 890 | 169.03 | 1400 |
| COC1CCN(c2cc(C(=O)NS(=O)(=O)CCC(F)(F)F)nc3c2c(C2CCC2)nn3-c2ccccc2)CC1 [Compound 147, 3-cyclobutyl-4-(4-methoxypiperidin-1-yl)-1-phenyl-N-(3,3,3-trifluoropropane-1-sulfonyl)-1H-pyrazolo[3,4-b]pyridine-6-carboxamide] | 363.93 | 99.9 | 176.47 | 359 |
| CCCN(CC)S(=O)(=O)NC(=O)c1cc(N2CCC(COC)CC2)c2c(C3CCC3)nn(-c3ccccc3)c2n1 [Compound 392, 3-cyclobutyl-N-[ethyl(propyl)sulfamoyl]-4-[4-(methoxymethyl)piperidin-1-yl]-1-phenyl-1H-pyrazolo[3,4-b]pyridine-6-carboxamide] | 421.4 | 139 | 240.05 | 150 |
| COCCN(C)c1ncc(-c2cc(C(=O)NS(C)(=O)=O)nc3c2c(C(C)C)nn3C2CCCCC2)cn1 [Compound 120, 1-cyclohexyl-N-(methanesulfonyl)-4-{2-[(2-methoxyethyl)(methyl)amino]pyrimidin-5-yl}-3-(propan-2-yl)-1H-pyrazolo[3,4-b]pyridine-6-carboxamide] | 351.03 | 348 | 169.2 | 554 |
| O=C(c1cc(N2CCC(N3CCOCC3)CC2)c2c(C3CCC3)nn(-c3ccccc3)c2n1)N1CCCCS1(=O)=O [Compound 666, 2-{3-cyclobutyl-4-[4-(morpholin-4-yl)piperidin-1-yl]-1-phenyl-1H-pyrazolo[3,4-b]pyridine-6-carbonyl}-1λ^6,2-thiazinane-1,1-dione] | 266.6 | 122 | 99.775 | 256 |
| O=C(NS(=O)(=O)C1CC1)c1cc(N2CCC(N3CCOCC3)CC2)c2c(C3CCC3)nn(-c3ccccc3)c2n1 [Compound 436, 3-cyclobutyl-N-(cyclopropanesulfonyl)-4-[4-(morpholin-4-yl)piperidin-1-yl]-1-phenyl-1H-pyrazolo[3,4-b]pyridine-6-carboxamide] | 568.6 | 71.1 | 393.3 | 344 |
| COCCS(=O)(=O)NC(=O)c1cc(-c2ccc(N3CCC(C#N)CC3)nc2)c2c(OC3CCOC3)nn(-c3ccccc3)c2n1 (stereo not shown) [Compound 275, 4-[6-(4-cyanopiperidin-1-yl)pyridin-3-yl]-N-(2-methoxyethanesulfonyl)-3-[(oxolan-3-yl)oxy]-1-phenyl-1H-pyrazolo[3,4-b]pyridine-6-carboxamide] | 269.85 | 138 | 138.8 | 468 |
| CN(c1ccc(-c2cc(C(=O)NS(C)(=O)=O)nc3c2c(C2CCC2)nn3-c2cccc(N3CCCC3)c2)cc1)C1CCOCC1 [Compound 111, 3-cyclobutyl-N-(methanesulfonyl)-4-{4-[methyl(oxan-4-yl)amino]phenyl}-1-[3-(pyrrolidin-1-yl)phenyl]-1H-pyrazolo[3,4-b]pyridine-6-carboxamide] | 596.8 | 378 | 411.63 | 444 |
| CN(C)S(=O)(=O)NC(=O)c1cc(N2CCC3(CC2)CC(N2CCOCC2)CO3)c2c(C3CCC3)nn(-c3ccc(F)cc3)c2n1 (stereo not shown) [Compound 533, 3-cyclobutyl-N-(dimethylsulfamoyl)-1-(4-fluorophenyl)-4-[3-(morpholin-4-yl)-1-oxa-8-azaspiro[4.5]decan-8-yl]-1H-pyrazolo[3,4-b]pyridine-6-carboxamide] | 322.45 | 221 | 156.3 | 222 |
| CN(C(=O)c1cc(N2CCC(CN3CCCC3)CC2)c2c(C3CCC3)nn(-c3ccccc3)c2n1)S(C)(=O)=O [Compound 662, 3-cyclobutyl-N-(methanesulfonyl)-N-methyl-1-phenyl-4-{4-[(pyrrolidin-1-yl)methyl]piperidin-1-yl}-1H-pyrazolo[3,4-b]pyridine-6-carboxamide] | 346.65 | 104 | 134.35 | 124 |
